{"source": "patent US10278931B2", "about": "“Composition for treatment of inflammatory bowel disease and atopic dermatitis” (INNOPHARMASCREEN INC., priority 2015, dated 2019)", "key": {"HMC-1 cells": {"tested_on": "HMC-1 cells", "assay": "Cytotoxicity (MTT-assay) in HMC-1 cells", "assay_type": "cell-based, human", "procedure": "(1) Cell culture: A human mast cell line (HMC-1) was cultured in an IMDM supplemented with 10% FBS at 37° C. and 5% CO2. Candidate materials were dissolved in DMSO, and then filtered using a 0.22 μm filter. The resulting candidate materials were diluted with DMSO and the HMC-1 cells were treated therewith.\n[…] After culturing, the medium was replaced by a fresh medium, 5 mg/ml of an MTT solution was then added thereto, and the mast cells were incubated at 37° C. for 4 hours. 250 DMSO was added to the mast cells, MTT formazan was extracted therefrom, and absorbance of each well was measured at 540 nm using an ELISA reader."}, "caspase-1 [1]": {"biological_target": "T1, caspase-1 (Homo sapiens, UniProt P29466)", "T1 construct": "a caspase-1 assay was conducted using cell extracts; endogenous in cells; host or cells: HMC-1 (human mast cells)", "T1 sequence (P29466 120-297 limits assumed)": "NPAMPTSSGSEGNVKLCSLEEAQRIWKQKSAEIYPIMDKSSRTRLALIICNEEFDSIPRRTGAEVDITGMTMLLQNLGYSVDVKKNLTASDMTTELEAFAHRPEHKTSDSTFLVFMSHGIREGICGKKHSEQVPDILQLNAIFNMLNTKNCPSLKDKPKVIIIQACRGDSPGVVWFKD", "T1 sequence (P29466 317-404 limits assumed)": "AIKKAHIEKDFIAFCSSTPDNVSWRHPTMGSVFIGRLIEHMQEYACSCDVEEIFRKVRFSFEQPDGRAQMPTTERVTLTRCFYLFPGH", "assay": "Caspase-1 assay using HMC-1 cell extracts", "assay_type": "cell-based"}, "caspase-1 [2]": {"biological_target": "T2, caspase-1 (Mus musculus, UniProt P29452)", "T2 construct": "using the dorsal skin of DNCB-applied balb/c mice; from tissue; host or cells: dorsal skin of BALB/c mice", "T2 sequence (P29452 119-402)": "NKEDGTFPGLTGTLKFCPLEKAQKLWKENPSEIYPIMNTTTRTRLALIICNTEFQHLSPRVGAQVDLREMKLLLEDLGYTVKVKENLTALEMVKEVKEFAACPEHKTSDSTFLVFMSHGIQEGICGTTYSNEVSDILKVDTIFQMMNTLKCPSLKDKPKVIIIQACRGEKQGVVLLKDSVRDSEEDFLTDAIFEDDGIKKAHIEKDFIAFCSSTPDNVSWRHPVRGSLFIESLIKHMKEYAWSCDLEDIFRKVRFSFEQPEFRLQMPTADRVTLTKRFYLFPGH", "assay": "Caspase-1 assay in dorsal skin of DNCB-applied mice", "assay_type": "in vivo", "settings": "DNCB-applied balb/c mice, concentration-dependent", "procedure": "(4) Caspase-1 assay: Recombinant caspase-1 and a drug were allowed to react, and then activity measurement was performed using a caspase-1 assay kit (R&D Systems Inc., Minneapolis, Minn., USA).\nB. Dermatitis induction: Hairs on the back of each mouse were removed and maintained for 24 hours, and then 150 μl of a 1% 2,4-dinitrochlorobenzene(DNCB) solution (acetone: olive oil=3:1) was applied on the hair-removed site once a week for 3 weeks. After week 3, the DNCB solution was applied on the site twice a week for 3 weeks to induce atopic dermatitis.\nC. Treatment: Mice were divided into 6 groups, and 0.5% DMSO was applied on animals as a control and 200 μl of each of 0.01 μM, 0.1 μM, and 1 μM test material was applied on animals as experimental groups for 3 weeks. 50 μl of 0.1% dexamethasone dissolved in a crude alcohol was applied on animals as a positive control at intervals of 2 days."}, "SD rats": {"tested_on": "SD rats", "assay": "Acute dermal toxicity test", "assay_type": "in vivo", "settings": "for Number of death on day 1 / Number of death on day 2 / Number of death on day 3 / Number of death on day 4 / Number of death on day 5 / Number of death on day 6 / Number of death on day 7 / Number of death on day 8-14 / Number of death on day 0: dose group 200 (head μg/kg bw); for Number of death on day 0: single transdermal", "procedure": "(1) Environmental Conditions: In the present experiment, experimental animals were bred in a clean animal breeding room (small animal room #2-302) at Hoseo University Safety Evaluation Center, set under environmental conditions: temperature of 22±3° C.; relative humidity of 50±20%; ventilation frequency of 10 to 15 times/hour; illumination period of 12 hours; and illuminance of 150 Lux to 300 Lux.\n(2) Cages and rugs: Two or three animals per sex were accommodated in each of polycarbonate cages (270×500×200 mm, KYERYONG SCIENCE) with a stainless steel mesh lid during an acclimation period, and after group division, 1 animal per sex was accommodated therein. As the rugs, sterile betachips (NEPCO) irradiated with gamma rays were used.\n(3) Feed and drinking water: The animals were fed freely a mouse feed for laboratory, animals (5053-Picolab Rodent 20) manufactured by PMI Nutrition International, and filtered water treated with ultraviolet sterilization (R/O water) was freely supplied as drinking water.\n(4) Examination of contaminant in feed and drinking water: Contaminants in the feed were examined by receiving a test result from the feed manufacturer, and the quality of drinking water was checked for contamination by regular inspection according to the corresponding SOP of the present test institute and it was confirmed that there were no contaminants.\n(A) About 24 hours before administration, hairs on the dorsal part was removed such that the hair-removed site accounted for about 10% or more of the entire surface area thereof, and attention was paid not to injure the skin.\n(B) On the day of administration, a dosage for each individual was calculated, and then a test material was sufficiently wetted with a solvent and then applied on the site corresponding to about 10% (about 44 cm) of the entire surface area.\n(C) The test material was kept in contact with the skin using a porous gauze, a non-irritating tape, and a bandage during the 24-hour exposure period.\n(D) When the exposure period was terminated, the remaining test material was removed using tepid water.\n(A) General symptom observation: All animals were observed intensively from 30 minutes to 4 hours after administration, and general symptoms were observed once a day for 14 days. At the time of observation, death and clinical symptoms were recorded on an individual basis.\n(B) Body weight measurement: All animals were measured at the time of receipt, at the time of group division, immediately before administration (day of administration), and on day 1, day 4, day 7, day 10, and day 14 after initiation of administration.\n(C) Autopsy: During the test, dead animals were immediately autopsied and organs were inspected with the naked eye, and at the end of the test, all living animals were euthanized by CO2 gas inhalation and venesectioned, and then the organs visually examined.\n(E) Statistical analysis: Body weight data were expressed as mean and standard deviation, and no statistical analysis of body weight was performed."}}, "data": [{"smiles": "Cl.N=C(N)NC(=N)Nc1ccc(Cl)cc1", "note": "[IPS-07001]", "values": [{"measurement": "cytotoxicity (MTT-assay)", "setting": "HMC-1 cells; 10 μM", "value": "exhibited cytotoxicity"}, {"measurement": "cytotoxicity (MTT-assay)", "setting": "HMC-1 cells; up to 1 μM", "value": "no cytotoxicity"}, {"measurement": "caspase-1 activity in HMC-1 cells", "setting": "caspase-1 [1]", "value": "significantly inhibited"}, {"measurement": "caspase-1 activity in dorsal skin", "setting": "caspase-1 [2]", "value": "significantly inhibited"}, {"measurement": "Number of death on day 1", "setting": "SD rats; Female", "value": 0}, {"measurement": "Number of death on day 2", "setting": "SD rats; Female", "value": 0}, {"measurement": "Number of death on day 3", "setting": "SD rats; Female", "value": 0}, {"measurement": "Number of death on day 4", "setting": "SD rats; Female", "value": 0}, {"measurement": "Number of death on day 5", "setting": "SD rats; Female", "value": 0}, {"measurement": "Number of death on day 6", "setting": "SD rats; Female", "value": 0}, {"measurement": "Number of death on day 7", "setting": "SD rats; Female", "value": 0}, {"measurement": "Number of death on day 8-14", "setting": "SD rats; Female", "value": 0}, {"measurement": "Number of death on day 0", "setting": "SD rats; Female", "value": 0}, {"measurement": "Number of death on day 1", "setting": "SD rats; Male", "value": 0}, {"measurement": "Number of death on day 2", "setting": "SD rats; Male", "value": 0}, {"measurement": "Number of death on day 3", "setting": "SD rats; Male", "value": 0}, {"measurement": "Number of death on day 4", "setting": "SD rats; Male", "value": 0}, {"measurement": "Number of death on day 5", "setting": "SD rats; Male", "value": 0}, {"measurement": "Number of death on day 6", "setting": "SD rats; Male", "value": 0}, {"measurement": "Number of death on day 7", "setting": "SD rats; Male", "value": 0}, {"measurement": "Number of death on day 8-14", "setting": "SD rats; Male", "value": 0}, {"measurement": "Number of death on day 0", "setting": "SD rats; Male", "value": 0}, {"measurement": "dead animals during the test period", "setting": "SD rats; all test material-administered groups, 14 days", "value": "No dead animals"}, {"measurement": "Gross findings (internal and external)", "setting": "SD rats; rat, in vivo", "value": "NGF ^a)"}, {"measurement": "body weight from day 2", "setting": "SD rats; rat, in vivo", "value": "normal body weight increase pattern"}, {"measurement": "body weight on day 1 after administration", "setting": "SD rats; rat, in vivo", "value": "decrease in body weight"}, {"measurement": "clinical symptoms, 4 hour", "setting": "SD rats; rat, in vivo", "value": "NCS"}, {"measurement": "clinical symptoms, Day 1", "setting": "SD rats; rat, in vivo", "value": "NCS"}, {"measurement": "clinical symptoms, Day 2", "setting": "SD rats; rat, in vivo", "value": "NCS"}, {"measurement": "clinical symptoms, Day 3", "setting": "SD rats; rat, in vivo", "value": "NCS"}, {"measurement": "clinical symptoms, Day 4", "setting": "SD rats; rat, in vivo", "value": "NCS"}, {"measurement": "clinical symptoms, Day 5", "setting": "SD rats; rat, in vivo", "value": "NCS"}, {"measurement": "clinical symptoms, Day 6", "setting": "SD rats; rat, in vivo", "value": "NCS"}, {"measurement": "clinical symptoms, Day 7", "setting": "SD rats; rat, in vivo", "value": "NCS"}, {"measurement": "clinical symptoms, Day 8", "setting": "SD rats; rat, in vivo", "value": "NCS"}, {"measurement": "clinical symptoms, Day 9", "setting": "SD rats; rat, in vivo", "value": "NCS"}, {"measurement": "clinical symptoms, Day 10-14", "setting": "SD rats; rat, in vivo", "value": "NCS"}, {"measurement": "visual pathological examination (autopsy)", "setting": "SD rats; surviving animals after observation period", "value": "no individual showed any abnormalities"}]}]}
